Each structure is given as a SMILES string. pEC50: −log10 of the molar value.

The test system of this experiment is SARS-CoV-2. Put plainly: Antiviral activity against SARS-CoV-2 USA-WA1/2020 infected in Vero E6 cells assessed as reduction in viral plaque formation incubated for 3 days by plaque reduction neutralization assay. The format is functional, organism-based. To be noted: Severe acute respiratory syndrome coronavirus 2, USA-WA1/2020, Vero C1008, 72 h. On the technique in general: Plaques are areas of infected cells; plaque reduction assays count them against a control.
In the case of `CC1(C)[C@@H]2[C@@H](C(=O)N[C@H](C=O)C[C@@H]3CCNC3=O)N(C(=O)OCc3ccccc3)C[C@@H]21`, the pEC50 (in general, the EC50 on a negative log10 scale, so that one unit is a factor of ten) was 5.82.
Consider `O=C[C@H](C[C@@H]1CCNC1=O)NC(=O)C1CC2(CCCC2)CN1C(=O)OCc1ccccc1` (stereo partly drawn), for which the pEC50 was 6.43.
Regarding `O=C[C@H](C[C@@H]1CCNC1=O)NC(=O)C1CC2(CCCCC2)CN1C(=O)OCc1ccccc1` (stereo partly drawn), the pEC50 is 6.43.

The record behind these values is ChEMBL document CHEMBL5360647, “A Systematic Survey of Reversibly Covalent Dipeptidyl Inhibitors of the SARS-CoV-2 Main Protease” (J Med Chem, 2023).
